The record followed here is US20240262844A1, “PYRIDINIUM SALTS AND METHODS OF USE” (UNIVERSITY OF WYOMING, priority 2023, published 2024).

One data set deals with HEK293T lysates. Nature of the data set: Chemoproteomic profiling of HEK293T lysates (protein-level enrichment). The class given is biochemical, Human. Here is the method:
In lysate tryptophan probe treatment for protein-level characterization: HEK293T cell pellets were suspended in native lysis buffer (50 mM HEPES pH 7.5, 150 mM sodium chloride (NaCl), 1.5 mM MgCl2, 1 mM DTT, 0.8% NP-40, 5% glycerol, and 1x protease inhibitors (Thermo)) at 2x the pellet volume. The samples were sonicated on ice for 30 seconds at 20% amplitude with a 2 second pulse ON and 3 second pulse OFF. Cell debris was removed by centrifugation at 20,000×g for 20 minutes at 4° C. Protein concentration was determined by bicinchoninic acid (BCA) (Pierce) and diluted down to 5 mg/mL with ChemProt buffer (50 mM HEPES pH 7.5, 150 mM NaCl, 1.5 mM MgCl2, 1 mM DTT, 0.4% NP-40, and 1x protease inhibitors (Thermo). 5 mg cell lysates were treated with 100x stocks of the tryptophan probes (pyridinium salts 1a, 1b, and 2b) to generate final concentrations (0, 1, 10, and 100 μM) in 1% DMSO. Lysates were incubated for 1 hour at 4° C. followed by photo-activation at respective wavelengths for 20 minutes at 4° C. Excess probe was removed using Sephadex G-25 PD-10 desalting columns (GE Healthcare) pre-equilibrated with 50 mM HEPES pH 7.5, 150 mM NaCl, 1.5 mM MgCl2, and 0.4% NP-40. The samples were then treated with 100 μL Neutravidin resin as a 50% slurry (Peirce). The samples were incubated overnight on a rotating apparatus at R.T. The following day, the beads were transferred to a MobiCol column (Boca Scientific), washed 3× with phosphate buffered saline (PBS) containing 0.2% SDS, washed 3x with PBS, and the enriched proteins were eluted with 2×NuPAGE lithium dodecyl sulfate (LDS) containing 10 mM DTT (Pierce) and heated for 30 minutes at 55° C. The eluent was collected and subsequently treated with 20 mM iodoacetamide (Pierce) for 30 minutes at R.T. protected from light. Samples were passed through detergent removal columns (Pierce) that were pre-equilibrated with 50 mM HEPES pH 8.0. The samples were treated with 2.5 μg Trypsin/LysC (Promega) at 37° C. for 16 hours. The following day, the sample was collected and prepped for isobaric labeling with TMT reagents (Thermo) as specified by the manufacturer.
Quantitative proteomics by two-dimensional nano liquid chromatography-tandem mass spectrometry (nLC-MS/MS): For protein-level characterization, the TMT-labeled sample were reconstituted in 0.1% formic acid (FA)/2% acetonitrile for offline high-pH reversed phase separation (RP10) using a Dionex UltiMate 3000 high-performance liquid chromatography (HPLC) system with fraction collection using Chromeleon v.6.8 (Thermo) software. Separation was achieved on a Waters Xbridge C18 3.5 μm 2.1×150 mm HPLC column (Waters) using a flow rate of 250 μL min-1 and the following ternary gradient and conditions: mobile phase A=water (HPLC grade), mobile phase B=acetonitrile (HPLC grade), and mobile phase C=200 mM ammonium acetate, pH 10. Mobile phase C is held at 10% throughout gradient. Starting conditions are 89% mobile phase A and 1% mobile phase B, ramping mobile phase B to 80% over 65 min. Fractions were collected in 96-well plates at 100 see per well. Fractions were reduced down to 12 fractions, dried, and reconstituted in 0.1% FA/2% acetonitrile for nLC-MS/MS. All data were acquired using a Orbitrap Fusion Lumos coupled to an Easy-nLC 1200 nanoflow liquid chromatograph operating at 300 nL min^−1. Peptides were cleaned up using a 1 cm online custom trap then eluted on a custom 20 cm laser pulled 75 μm column with C18 resin. Peptides were quantified using the synchronous precursor selection (SPS-MS3) or HCD method for TMT quantitation with 120k MS1 resolving power, 50 ms max injection time and 100% AGC. MS2 spectra were selected using the top ten most abundant features with a charge state between 2-6 using CID (collision induced dissociation) in the ion trap. The AGC was set to 100% with an isolation width of 0.7. MS3 was performed on the top 10 most abundant MS2 features between 400-1600 amu with a collision energy of 55%, AGC of 250%, and 50k resolution. […]

The next data set relates to Leuprolide (1.2 kDa). In words: Photochemical labeling of leuprolide (LC/MS). The class given is biochemical. Particulars: 10 μM leuprolide, 100 μM pyridinium salt, 300 μM glutathione, 20 mM NH4OAc pH 6.9, 427 nm, 30 minutes. The protocol:
General Procedure B: Photochemical Irradiation of Peptides and Proteins: To a 2 mL Pyrex LC/MS vial (Thermo model #03-391-39) were sequentially added solutions containing the desired biomolecule, glutathione (GSH), pyridinium salt, and ammonium acetate (NH4OAc). The resulting solution was diluted to a final volume of 500 μL and then sparged using nitrogen for a minimum of 30 minutes prior to irradiation. The actively sparging solution was then placed in an EvoluChem™ PhotoRedOx Box photoreactor that was equipped with a Kessil, PR160 427 nm LED Lamp and was then irradiated (100% lamp intensity) for the designated time at room temperature while maintaining active sparging. The resultant reaction mixture was then analyzed directly by LC/MS. Analysis of labeling outcomes using LC/MS was performed either by extracted ion chromatogram intensities (method A) or by integrating the area under the peaks associated with peptide content (method B). These values were totaled, and estimated percentages were assigned according to relative intensities of peaks or ion counts.
Labeling of Leuprolide with Pyridinium Salt 2a (Leuprolide-2a Conjugate). […] The reaction mixture was analyzed directly by LC/MS using method B and was estimated to have proceeded with 91% conversion, a >20:1 mono:di labeled ratio, and 4% of +1 label+glutathionylation. […]

“Also recorded” adds a separate entry of the source. Where a name gives a salt, the structure may show the parent alone.

On to `COc1ccc2cc(-c3cc(C)[n+](N(C)C(=O)OCCCCC[C@H]4SC[C@H]5NC(=O)N[C@H]54)c(C)c3)ccc2c1` (stereo in doubt) [Pyridinium salt 2b, 4-(6-methoxynaphthalen-2-yl)-2,6-dimethyl-1-(methyl(((5-((3aR,4R,6aS)-2-oxohexahydro-1H-thieno[3,4-d]imidazol-4-yl)pentyl)oxy)carbonyl)amino)pyridin-1-ium tetrafluoroborate], for which the “proteome labeling profile, streptavidin-HRP Western blot of elution profiles” value in the data set on HEK293T lysates (0-100 μM probe, with and without irradiation, before digestion) was “concentration and optically dependent proteome labeling profiles; also recorded: dose-response profiles”. The “number of proteins identified (from ≥2 unique peptides) with ≥2-fold enrichment versus DMSO” value in the data set with HEK293T lysates (about 100 μM probe, 60 min incubation, 20 min irradiation (302 nm 1a, 320 nm 1b, 440 nm 2b)) is recorded as 523 proteins. In the data set with HEK293T lysates (comparison of proteome coverage of probes 1a, 1b, 2b at 100 μM), the “percentage of unique enriched proteins” value is listed as “about 69%”. For the same compound, the “reactivity in the absence of photoirradiation” value with HEK293T lysates (enrichment profiles with and without photoirradiation) is “thermal inertness”.
With `COC(=O)N(C)[n+]1c(C)cc(-c2ccc3cc(OC)ccc3c2)cc1C` [Pyridinium salt 2a, 1-((methoxycarbonyl)(methyl)amino)-4-(6-methoxynapthalen-2-yl)-2,6-dimethylpyridin-1-ium tetrafluoroborate], in the data set on Leuprolide (1.2 kDa), the conversion came to 91%.
